The text below walks through data of US20080299563A1, “HUMAN MAP2 GENE PROMOTER” (priority 2007, published 2008).

Assay [1] concerns MAP2 promoter. Description: Notch1 inhibition / HES1 knockdown, phMAP2-2 luciferase assay in WM35 primary melanoma cells. The assay is classed as cell-based, human. The following applies: DAPT 1 or 2 μM, 0.6 μg HES1shRNA. The method, then:
(§1) Transient transfection and luciferase assays: Transient transfections with various promoter constructs were performed using Lipofectamine (Invitrogen, Carlsbad, Calif.) according to the manufacturer's instructions. Cells in 24- or 6-well tissue culture dishes, in triplicates, were transfected with 0.6 or 3 μg, respectively, of empty vector pGL3 or promoter-reporter constructs (phMAP2-1, phMAP2-2, phMAP2-3 and phMAP2-4) and 0.07 or 0.5 μg Renilla luciferase plasmid pRL. In co-transfection experiments, different amounts of NeuroD and Hes1 expression plasmids were added. For Notch1 inhibition and HES1 knockdown experiments, cells were either pre-treated with indicated amount of γ-secretase inhibitor-DAPT (Calbiochem, La Jolla, Calif.) and/or transfected with indicated amount of lentiviral HES1shRNA plasmid (The RNAi Consortium collection, a library of short hairpin DNAs cloned in pLKO.1 lentiviral vector; Open biosystem, Huntsville, Ala.) 1 day before transfection with MAP2 promoter constructs. After 48 h of transfection, cells were washed with pre-chilled PBS and lysed in passive lysis buffer (Dual Luciferase kit, Promega). Firefly luciferase and Renilla luciferase activities in the cell lysates were measured according to the manufacturer's instructions using TD 20/20-luminometer (Turner Biosystems, Sunnyvale, Calif.). […]

The subject of assay [2] is MAP2 promoter. Description: Notch1 inhibition / HES1 knockdown, phMAP2-2 luciferase assay in 451Lu metastatic melanoma cells. The assay is classed as cell-based, human. As to conditions: DAPT 1 or 2 μM, 0.6 μg HES1shRNA. The method, then: as §1

For `C[C@H](NC(=O)Cc1cc(F)cc(F)c1)C(=O)N[C@H](C(=O)OC(C)(C)C)c1ccccc1` [DAPT], the “MAP2 promoter activity (phMAP2-2 luciferase)” value was “dose-dependent increase” in assay [1] and “not sufficient to activate MAP2 promoter” in assay [2].
